Reference: patent US20240261319A1, “ANTI-FUNGAL COMPOSITION DERIVED FROM HESPERALOE” (Kimberly-Clark Worldwide, Inc., priority 2021, published 2024)
Values after ≈ are worked out from the molar mass of the structure shown.

System: Candida albicans
Test: Minimum inhibitory concentration (MIC) testing, two-fold broth dilution in YPD, OD620
Assay type: cell-based
Details: C. albicans (ATCC) in YPD broth, two-fold dilutions starting at 200, 30° C., 18-24 hours
Description: Candida albicans, was purchased from ATCC. Thirty-five samples derived from KC Hesperaloe funifera, crude extracts and selected fractions (Table 1) were screened for the inhibition of growth of candida.
Minimum inhibitory concentration (MIC) testing was performed. Two-fold dilutions of sample prepared in C. albicans growth medium (Yeast Peptone Dextrose, YPD) broth, starting at 200 µg/mL. Then inoculum added and incubated at 30° C. for 18-24 hours, and OD620 was determined. T-test was used to determine statistically significant decreases in growth ([…]). Controls included Ketoconazole (50 µg/mL, Keto50), Neg (media with DMSO only, no inoculum), Pos (media with DMSO and inoculum), and YPD (broth only). In wells with decreased growth, wells were mixed by pipetting, and […] samples were plated on YPD agar to determine whether viable C. albicans were present, as an estimation of minimum fungicidal concentration (MFC).

MIC: 25 mg/mL (≈ 47 mM)
SMILES: CC(=O)N1CCN(c2ccc(OCC3COC(Cn4ccnc4)(c4ccc(Cl)cc4Cl)O3)cc2)CC1 (stereo not shown) [Ketoconazole]
